# Assay results: publication PMC9781087, “Discovery of New Microbial Collagenase Inhibitors” (Life, 2022)
# Like-named read-outs stand apart in the source and are kept apart here.
# Assays:
# Solubility = settings: in words
# collagenase A (ColA) = collagenase A (ColA) (Clostridium perfringens, UniProt P43153); test: biochemical; set-up: species or system C. perfringens; settings: for Inhibition (%) on ColA: after 30 min of incubation
# [1] = tested on: Staphylococcus aureus, Enterococcus faecalis, and Staphylococcus epidermidis; set-up: method as in PMID 31486108; settings: cited from earlier work
# mice = tested on: mice; set-up: method as in PMID 34684834; settings: acute toxicity; cited from earlier work
# [2] = tested on: neuraminidase protein of Clostridium perfringens; settings: cited from earlier work
# [3] = tested on: rats intratendineously injected with collagenase; set-up: method as in PMID 28165813; settings: intragastrical administration, 100 mg/kg; cited from earlier work
# [4] = target: collagenase from Clostridium histolyticum; set-up: method as in PMID 16276971; settings: cited from earlier work
# [5] = read-out: Inhibition (%) on ColA
# [6] = read-out: Inhibition(%) on ColA
# [7] = 100 µM, preliminary screening (Table S1), * = compound precipitated due to low solubility
# Chain of collagenase A (ColA) (P43153 87-1104 limits assumed): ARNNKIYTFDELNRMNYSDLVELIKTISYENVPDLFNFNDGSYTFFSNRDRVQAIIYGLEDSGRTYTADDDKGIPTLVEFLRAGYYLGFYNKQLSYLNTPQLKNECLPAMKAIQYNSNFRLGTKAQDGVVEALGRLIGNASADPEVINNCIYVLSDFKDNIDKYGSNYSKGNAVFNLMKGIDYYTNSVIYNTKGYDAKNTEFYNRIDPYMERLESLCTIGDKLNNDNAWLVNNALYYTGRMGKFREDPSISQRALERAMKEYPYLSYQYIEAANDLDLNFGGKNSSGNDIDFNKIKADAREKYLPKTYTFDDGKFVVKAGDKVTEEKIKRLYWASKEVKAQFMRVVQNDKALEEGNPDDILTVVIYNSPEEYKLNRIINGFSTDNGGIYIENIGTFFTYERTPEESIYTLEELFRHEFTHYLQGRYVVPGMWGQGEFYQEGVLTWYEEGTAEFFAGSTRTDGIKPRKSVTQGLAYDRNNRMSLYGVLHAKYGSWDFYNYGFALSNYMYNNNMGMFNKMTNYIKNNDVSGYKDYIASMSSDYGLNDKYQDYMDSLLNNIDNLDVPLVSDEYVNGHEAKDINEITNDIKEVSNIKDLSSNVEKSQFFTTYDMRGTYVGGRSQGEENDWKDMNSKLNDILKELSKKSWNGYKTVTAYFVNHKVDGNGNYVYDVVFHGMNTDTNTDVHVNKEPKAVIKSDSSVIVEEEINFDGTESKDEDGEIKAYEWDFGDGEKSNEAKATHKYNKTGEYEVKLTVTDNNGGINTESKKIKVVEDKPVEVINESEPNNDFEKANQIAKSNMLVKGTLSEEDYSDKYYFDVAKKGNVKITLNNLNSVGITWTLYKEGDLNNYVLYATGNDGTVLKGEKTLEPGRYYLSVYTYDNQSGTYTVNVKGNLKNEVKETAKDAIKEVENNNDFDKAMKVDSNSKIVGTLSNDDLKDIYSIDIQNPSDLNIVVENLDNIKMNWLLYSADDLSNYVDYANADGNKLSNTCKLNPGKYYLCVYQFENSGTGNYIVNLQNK
compound,measurement,setting,value
"O=C1c2ccc(O)cc2OC(c2cc(O)c(O)c(O)c2)C1O (stereo not drawn) [Dihydrorobinetin, dihydrorobinetin]",solubility,Solubility,poor solubility in water
same,Inhibition (%) on ColA,"collagenase A (ColA); 10 µM, mean ± SD of three replications",Almost complete inhibition
same,inhibition at 1 µM,collagenase A (ColA); [5],-16.5 ± 1.6%
same,inhibition at 5 µM,collagenase A (ColA); [5],-29.7 ± 0.5%
same,inhibition at 10 µM,collagenase A (ColA); [5],105.1 ± 0.5%
same,inhibition at 100 µM,collagenase A (ColA); [6],96.9%
"O=C1C=CC(=O)c2c(O)cccc21 [Juglone, juglone]",inhibitory effect on ColA (in words),collagenase A (ColA),potent inhibitors of ColA
same,Inhibition (%) on ColA,"collagenase A (ColA); 100 µM, mean ± SD of three replications (five-dose assay)",Almost complete inhibition
same,inhibition at 1 µM,collagenase A (ColA); [5],13.8 ± 1.5%
same,inhibition at 5 µM,collagenase A (ColA); [5],50.6 ± 0.5%
same,inhibition at 10 µM,collagenase A (ColA); [5],69.2 ± 0.4%
same,inhibition at 50 µM,collagenase A (ColA); [5],80.8 ± 0.7%
same,impact on the bacterial growth,[1],low impact on the bacterial growth
"COc1cc2c(cc1OC)-c1cc3ccc(OC)c(OC)c3c[n+]1CC2 [Palmatine chloride, palmatine chloride]",lethal dose 50,mice,1533.68 mg/kg
same,Inhibition (%) on ColA,"collagenase A (ColA); 50 µM, mean ± SD of three replications",Almost complete inhibition
same,inhibition at 1 µM,collagenase A (ColA); [5],15.5 ± 3.9%
same,inhibition at 5 µM,collagenase A (ColA); [5],35.4 ± 1.8%
same,inhibition at 10 µM,collagenase A (ColA); [5],84.9 ± 1.5%
same,inhibition at 50 µM,collagenase A (ColA); [5],97.9 ± 1.6%
same,inhibition at 100 µM,collagenase A (ColA); [5],98.7 ± 0.4%
same,inhibition at 100 µM,collagenase A (ColA); [6],103%
same,neuraminidase inhibition (in words),[2],potent effect
"O=C(/C=C/C=C/c1ccc2c(c1)OCO2)N1CCCCC1 [Piperine, piperine]",solubility,Solubility,low solubility
same,morphological structure of rats' tendons,[3],improvement of the morphological structure
same,IC50 (in words),collagenase A (ColA),nanomolar range
same,inhibitory effect on ColA (in words),collagenase A (ColA),"potent inhibitory effects on ColA, even at small concentration"
same,inhibition at 1 µM,collagenase A (ColA); [5],84.5 ± 0.4%
same,inhibition at 5 µM,collagenase A (ColA); [5],82.4 ± 0.4%
same,inhibition at 10 µM,collagenase A (ColA); [5],72.5 ± 2.7%
same,inhibition at 100 µM,collagenase A (ColA); [6],81.1%
Cc1ccc(S(=O)(=O)N[C@@H](CCCNC(=N)N)C(=O)O)cc1 [nalpha-p-toluenesulfonyl-L-arginine],Inhibition (%) on ColA,collagenase A (ColA); [7],24.8%
CC1=CC(=O)c2c(O)cccc2C1=O [plumbagin],inhibition at 100 µM,collagenase A (ColA); [6],-7.7%
"COc1cc([C@@H]2c3cc4c(cc3[C@H](O)[C@H]3COC(=O)[C@H]23)OCO4)cc(OC)c1OC [podophyllotoxin, reference compound]",inhibition at 100 µM,collagenase A (ColA); [6],-9.7%
"O=C(O)[C@H]1/C(=C/CO)O[C@@H]2CC(=O)N21 [potassium clavulanate, reference compound]",inhibition at 100 µM,collagenase A (ColA); [6],-8.1%
O=c1c(O)c(-c2ccc(O)c(O)c2)oc2cc(O)cc(O)c12 [quercetin],IC50,[4],286 µM
O=C(O)C1=C[C@@H](O)[C@@H](O)[C@H](O)C1 [shikimic acid],inhibition at 100 µM,collagenase A (ColA); [6],-0.2%
"O=S(=O)(O)CCS [sodium 2-mercaptoethanesulfonate, reference compound]",inhibition at 100 µM,collagenase A (ColA); [6],20.6%
"CC1(C)[C@H](C(=O)O)N2C(=O)C[C@H]2S1(=O)=O [sulbactam, reference compound]",inhibition at 100 µM,collagenase A (ColA); [6],-10.7%
"C[C@]1(Cn2ccnn2)[C@H](C(=O)O)N2C(=O)C[C@H]2S1(=O)=O [tazobactam, reference compound]",inhibition at 100 µM,collagenase A (ColA); [6],18.7%
c1ccc2c3c([nH]c2c1)CNCC3 [tetrahydronorharman],Inhibition (%) on ColA,collagenase A (ColA); [7],21.3%
"C[C@@H]1O[C@@H](OC[C@H]2O[C@@H](Oc3c(-c4ccc(OCCO)c(OCCO)c4)oc4cc(OCCO)cc(O)c4c3=O)[C@H](O)[C@@H](O)[C@@H]2O)[C@H](O)[C@H](O)[C@H]1O [trihydroxyethylrutin, reference compound]",Inhibition (%) on ColA,collagenase A (ColA); [7],1.3%
O=c1ccc2ccc(O)cc2o1 [umbelliferone],inhibition at 100 µM,collagenase A (ColA); [6],-10.2%
CC(=O)c1c(O)c(C)c(O)c2c1OC1=CC(=O)C(C(C)=O)C(=O)C12C (stereo not drawn) [usnic acid],inhibition at 100 µM,collagenase A (ColA); [6],3.9%
S-(acetamidomethyl)-L-cysteine,Inhibition (%) on ColA,collagenase A (ColA); [7],-15.2%
myricitrin,inhibitory effect on ColA (in words),collagenase A (ColA),low inhibitory effect
